The record followed here is US9301923B2, “Lipids, lipid compositions, and methods of using them” (NOVARTIS AG, priority 2009, dated 2016).

The nature of data set [1]: Particle size and PDI by dynamic light scattering (Malvern Zetasizer). In kind it is physicochemical. Here is the method: Unless indicated otherwise, all sizes referred to herein are the average sizes (diameters) of the fully formed nanoparticle, as measured by dynamic light scattering on a Malvern Zetasizer. The nanoparticle sample is diluted in phosphate buffered saline (PBS) so that the count rate is approximately 200-400 kcts. The data is presented as a weighted average of the intensity measure.
The acronym PDI stands for polydispersity index. Unless indicated otherwise, all PDIs referred to herein are the PDI of the fully formed nanoparticle, as measured by dynamic light scattering on a Malvern Zetasizer. The nanoparticle sample is diluted in phosphate buffered saline (PBS) so that the count rate is approximately 200-400 kcts.

The next data set relates to Factor VII. Put plainly: Factor VII activity assay, in vivo liver delivery of FVII siRNA LNP. On the set-up: species or system mouse. The conditions noted are these: ~48 h. The protocol: Female CD-1 mice are received from Charles River Labs and maintained on standard lab chow and water ad libitum. The animals weigh approximately 25 grams at time of dosing. Formulated siRNA is administered as a single dose at various dose levels intravenously via the lateral tail vein calculated on a (mg siRNAs/kg) basis according to individual animal weights (10 ml/kg injection volume).
Formulated siRNAs are made up of double stranded siRNA sequences specific to a target mRNA sequence, and are in the form of lipid nucleotid particles (LNPs) containing cationic lipids, stealth lipids and neutral lipids, as provided in the Examples below. The siRNA construct for use in targeting the liver is specific to Factor VII. […] FVII siRNA duplex sequence
Formulated Factor VII siRNA is administered as a single dose at various dose levels intravenously via the lateral tail vein calculated on a mg siRNAs/kg basis according to individual animal weights (10 ml/kg injection volume). Approximately 48 h after injection, the mice are euthanized by CO2 inhalation followed by exsanguinations through the vena cava. […] In some cases, small pieces (˜50 mg) of liver are collected and snap frozen in liquid nitrogen for follow up mRNA quantitation.
An assay standard curve is prepared using pooled plasma aliquots from the vehicle control animals.

A short description of data set [2]: pKa of the lipid by TNS fluorescence. It counts as physicochemical. Here is the method: Unless explicitly indicated otherwise, all pKas referred to herein are measured in water at standard temperature and pressure. Also, unless otherwise indicated, all references to pKa are references to pKa measured using the following technique.
2 mM solution of lipid in ethanol are prepared by weighing the lipid and then dissolving in ethanol.
This is done with all eight buffers.
Priority: Column priority • Carriage Speed: Normal • Auto read: Off
The normalized fluorescence intensity vs. pH chart is then plotted in the Microsoft Excel software. The eight points are connected with a smooth line.
The pKa determined using this method is precise to about 0.2 pKa units.

Where [3] appears, read: lipid/DSPC/CHOL/AVANTI 880150P 50/28/18/4, N/P 3.43.
The mark [4] stands for this setting: lipid/no neutral lipid/CHOL/AVANTI 880150P 50/0/46/4, N/P 3.43.
Where [5] appears, read: dose 3 mg/kg siRNA i.v., lipid/DSPC/CHOL/AVANTI 880150P 50/28/18/4, N/P 3.43.
The mark [6] stands for this setting: dose 3 mg/kg siRNA i.v., lipid/no neutral lipid/CHOL/AVANTI 880150P 50/0/46/4, N/P 3.43.
Where [7] appears, read: lipid/DSPC/CHOL/AVANTI 880150P 30/30/36/4, N/P 2.3.
[8] abbreviates: lipid/DSPC/CHOL/AVANTI 880150P 25/28/18/4, N/P 1.9.

Like-named read-outs stand apart in the source and are kept apart here.

What is called pKa is the pH at which an ionisable group is half protonated. Lower therefore signals a stronger acid or weaker base. Take `CCCCC/C=C\C/C=C\CCCCCCCCOCC(CN1CCc2ccccc2C1)OCCOCCO[C@H]1CC[C@@]2(C)C(=CC[C@H]3[C@@H]4CC[C@H]([C@H](C)CCCC(C)C)[C@@]4(C)CC[C@@H]32)C1` (some centres unmarked) [E0001]: the “Final size (nm)” value was found to be 71 nm in data set [1] (setting [3]) and 77 nm in data set [1] (setting [4]). The PDI in data set [1] (setting [3]) worked out at 0.101; in data set [1] (setting [4]) it was 0.16. Further, the FVII inhib % in the data set on Factor VII (setting [5]) was determined as 27.6%; in the data set with Factor VII (setting [6]), 20.1%. In data set [2] (pKa), this molecule came in with a pKa of 4.84.
Turning to `CCCCC/C=C\C/C=C\CCCCCCCCOCC(CN1CCN(C(=O)OC(C)(C)C)CC1)OCCOCCO[C@H]1CC[C@@]2(C)C(=CC[C@H]3[C@@H]4CC[C@H]([C@H](C)CCCC(C)C)[C@@]4(C)CC[C@@H]32)C1` (some centres unmarked) [E0002], in data set [1] (setting [3]), the “Final size (nm)” value came out at 109 nm and the PDI stood at 0.221. Moreover, the FVII inhib % with Factor VII (dose 1 mg/kg siRNA i.v., lipid/DSPC/CHOL/AVANTI 880150P 50/28/18/4, N/P 3.43) is −0.3%. Further, in the data set with Factor VII (setting [5]), the FVII inhib % is given as 10.4%.
Consider `CCCCC/C=C\C/C=C\CCCCCCCCOCC(CN1CCC(N2CCCCC2)CC1)OCCOCCO[C@H]1CC[C@@]2(C)C(=CCC3C2CC[C@@]2(C)C3CC[C@@H]2[C@H](C)CCCC(C)C)C1` (some centres unmarked) [E0004], for which the “Final size (nm)” value amounted to 142 nm in data set [1] (setting [3]) and 186 nm in data set [1] (setting [4]). Moreover, the PDI in data set [1] (setting [3]) came out at 0.113; in data set [1] (setting [4]), 0.201. Further, the FVII inhib % was found to be 23.4% in the data set with Factor VII (setting [5]) and 41% in the data set on Factor VII (setting [6]). For the same molecule, the pKa in data set [2] (pKa) turned out to be 7.48.
Consider `CCCCC/C=C\C/C=C\CCCCCCCCOCC(CN1CCC(OC)CC1)OCCOCCO[C@H]1CC[C@@]2(C)C(=CCC3C2CC[C@@]2(C)C3CC[C@@H]2[C@H](C)CCCC(C)C)C1` (some centres unmarked) [E0005], for which the “Final size (nm)” value in data set [1] (setting [3]) is on record as 168 nm; in data set [1] (setting [4]), 146 nm. In addition, the PDI is on record as 0.069 in data set [1] (setting [3]) and 0.07 in data set [1] (setting [4]). Also, in the data set with Factor VII (setting [5]), the FVII inhib % was determined as 12.2%.
Take `CCCCC/C=C\C/C=C\CCCCCCCCOCC(CN1C[C@@H](C)O[C@@H](C)C1)OCCOCCO[C@H]1CC[C@@]2(C)C(=CC[C@H]3[C@@H]4CC[C@H]([C@H](C)CCCC(C)C)[C@@]4(C)CC[C@@H]32)C1` (some centres unmarked) [E0006]: the “Final size (nm)” value was 146 nm in data set [1] (setting [3]) and 95 nm in data set [1] (setting [4]). Also, the values for the PDI in data set [1] (setting [3]) and in data set [1] (setting [4]) were 0.04 and 0.142, respectively. Besides, the FVII inhib % is recorded as 15.7% in the data set on Factor VII (setting [5]) and 21.2% with Factor VII (setting [6]). In data set [2] (pKa), this molecule showed a pKa of 4.88.
Turning to `CCCCC/C=C\C/C=C\CCCCCCCCOCC(CN1CCNCC1)OCCOCCO[C@H]1CC[C@@]2(C)C(=CC[C@H]3[C@@H]4CC[C@H]([C@H](C)CCCC(C)C)[C@@]4(C)CC[C@@H]32)C1` (some centres unmarked) [E0012], in data set [1] (setting [7]), the “Final size (nm)” value was found to be 220 nm and the PDI is listed as 0.105. Further, the FVII inhib % in the data set on Factor VII (dose 3 mg/kg siRNA i.v., lipid/DSPC/CHOL/AVANTI 880150P 30/30/36/4, N/P 2.3) worked out at 9.3%.
Turning to `CCCCC/C=C\C/C=C\CCCCCCCCOCC(CN1CC2CCCC2C1)OCCOCCO[C@H]1CC[C@@]2(C)C(=CC[C@H]3[C@@H]4CC[C@H]([C@H](C)CCCC(C)C)[C@@]4(C)CC[C@@H]32)C1` (some centres unmarked) [E0022], the “Final size (nm)” value in data set [1] (setting [3]) is listed as 93 nm; in data set [1] (setting [4]), 84 nm. The PDI came to 0.143 in data set [1] (setting [3]) and 0.192 in data set [1] (setting [4]). For the same molecule, the FVII inhib % in the data set on Factor VII (setting [5]) was 49.4%; in the data set on Factor VII (setting [6]), 87.8%.
With `CCCCC/C=C\C/C=C\CCCCCCCCOCC(CN1CCC(CCOC)CC1)OCCOCCO[C@H]1CC[C@@]2(C)C(=CCC3C2CC[C@@]2(C)C3CC[C@@H]2[C@H](C)CCCC(C)C)C1` (some centres unmarked) [E0033], the “Final size (nm)” value is reported as 161 nm in data set [1] (setting [8]) and 105 nm in data set [1] (setting [4]). Moreover, the PDI in data set [1] (setting [8]) was determined as 0.16; in data set [1] (setting [4]), 0.05. Moreover, the FVII inhib % in the data set on Factor VII (dose 3 mg/kg siRNA i.v., lipid/DSPC/CHOL/AVANTI 880150P 25/28/18/4, N/P 1.9) is −36.4%; with Factor VII (setting [6]), 15.3%.
`CCCCC/C=C\C/C=C\CCCCCCCCOC[C@@H](CN1CCCCC1)OCCOCCO[C@H]1CC[C@@]2(C)C(=CCC3C2CC[C@@]2(C)C3CC[C@@H]2[C@H](C)CCCC(C)C)C1` (some centres unmarked) [E0034]: the “Final size (nm)” value in data set [1] (setting [3]) and in data set [1] (setting [4]) was 99 nm throughout. Also, the PDI in data set [1] (setting [3]) and in data set [1] (setting [4]) was 0.16 throughout. Moreover, the FVII inhib % is recorded as 81.3% in the data set on Factor VII (setting [5]) and 88.1% with Factor VII (setting [6]).
Take `CCCCC/C=C\C/C=C\CCCCCCCCOCC(CN1CCC[C@@H]1COC)OCCOCCO[C@H]1CC[C@@]2(C)C(=CC[C@H]3C4CC[C@H]([C@H](C)CCCC(C)C)[C@@]4(C)CC[C@@H]32)C1` (some centres unmarked) [E0037]: the “Final size (nm)” value is 96 nm in data set [1] (setting [3]) and 117 nm in data set [1] (setting [4]). The PDI stood at 0.24 in data set [1] (setting [3]) and 0.1 in data set [1] (setting [4]). Besides, the figures for the FVII inhib % in the data set on Factor VII (setting [5]) and in the data set on Factor VII (setting [6]) were 69.3% and 66.2%, respectively.
On to `CCCCC/C=C\C/C=C\CCCCCCCCOCC(CN1CCC(N2CCOCC2)C1)OCCOCCO[C@H]1CC[C@@]2(C)C(=CC[C@H]3[C@@H]4CC[C@H]([C@H](C)CCCC(C)C)[C@@]4(C)CC[C@@H]32)C1` (some centres unmarked) [E0038], for which the “Final size (nm)” value in data set [1] (setting [3]) is reported as 116 nm; in data set [1] (setting [4]), 115 nm. Further, the PDI in data set [1] (setting [3]) turned out to be 0.25; in data set [1] (setting [4]), 0.08. Also, the FVII inhib % in the data set on Factor VII (setting [5]) is recorded as −2.4%; in the data set on Factor VII (setting [6]), −6.2%.
For the molecule `CCCCC/C=C\C/C=C\CCCCCCCCOCC(CN1CCCCC1)OCCOCCOC(=O)O[C@H]1CC[C@@]2(C)C(C=CC3C2CC[C@@]2(C)C3CC[C@@H]2[C@H](C)CCCC(C)C)C1` (some centres unmarked) [E0056], the pKa in data set [2] worked out at 5.84; in data set [2] (pKa) it was 6.33.
As for `CCCCC/C=C\C/C=C\CCCCCCCCOCC(CN1CCCCC1)OCCNC(=O)O[C@H]1CC[C@@]2(C)C(=CC[C@H]3[C@@H]4CC[C@H]([C@H](C)CCCC(C)C)[C@@]4(C)CC[C@@H]32)C1` (some centres unmarked) [E0102], the “Final size (nm)” value in data set [1] (LNP formulation with PLK1 siRNA, helper, neutral and stealth lipid, molar ratio and N/P as in the table) is 94.69 nm. In data set [2] (pKa), this molecule showed a pKa of 6.31.
Regarding `CCCCCCCC/C=C\CCCCCCCCOCC(CN1CCOCC1)OCCOCCOC(=O)CO[C@H]1CC[C@@]2(C)C(=CC[C@H]3[C@@H]4CC[C@H]([C@H](C)CCCC(C)C)[C@@]4(C)CC[C@@H]32)C1` (some centres unmarked) [E0125], the “Final size (nm)” value stood at 101.5 nm in data set [1] (LNP formulation with PLK1 siRNA, helper, neutral and stealth lipid, molar ratio and N/P as in the table, stealth lipid S004, molar ratio 50/38/10/2, N/P 4); 92.84 nm in data set [1] (LNP formulation with PLK1 siRNA, helper, neutral and stealth lipid, molar ratio and N/P as in the table, stealth lipid S004, molar ratio 50/43/5/2, N/P 4); 94.13 nm in data set [1] (LNP formulation with PLK1 siRNA, helper, neutral and stealth lipid, molar ratio and N/P as in the table, stealth lipid S004, molar ratio 50/48/2, N/P 4). In data set [2] (pKa), this molecule had a pKa of 5.53.
Consider `CCCCC/C=C\C/C=C\CCCCCCCCOCC(CN1CCC(F)(F)CC1)OCCOCCO[C@H]1CC[C@@]2(C)C(=CCC3C2CC[C@@]2(C)C3CC[C@@H]2[C@H](C)CCCC(C)C)C1` (some centres unmarked) [E0170], for which the “Final size (nm)” value came out at 133 nm in data set [1] (setting [3]) and 170 nm in data set [1] (setting [4]). For the same molecule, the PDI was 0.095 in data set [1] (setting [3]) and 0.05 in data set [1] (setting [4]). In addition, the results for the FVII inhib % in the data set on Factor VII (setting [5]) and with Factor VII (setting [6]) were 9.3% and 14.3%, respectively.
